From ChEMBL document CHEMBL3045532, “Synthesis and evaluation of novel prodrugs of naproxen” (Med Chem Res, 2011)

Key:
[1] = system: Rattus norvegicus; test: Anti-inflammatory activity in Rattus norvegicus Wistar (rat) assessed as inhibition of carrageenan-induced edema volume at 69.4 mg/kg, po measured after 60 min; type: functional; conditions: 1 h
[2] = system: Rattus norvegicus; test: Anti-inflammatory activity in Rattus norvegicus Wistar (rat) assessed as inhibition of carrageenan-induced edema volume at 69.4 mg/kg, po measured after 90 min; type: functional; conditions: 1.5 h
[3] = Prodrug conversion in phosphate buffer assessed as half-life for hydrolysis at pH 7.4; type: physicochemical
[4] = Prodrug conversion in acetate buffer assessed as half-life for hydrolysis at pH 3; type: physicochemical
[5] = Prodrug conversion in acetate buffer assessed as half-life for hydrolysis at pH 4; type: physicochemical
[6] = Prodrug conversion in acetate buffer assessed as half-life for hydrolysis at pH 5; type: physicochemical
[7] = system: Rattus norvegicus; test: Anti-inflammatory activity in Rattus norvegicus Wistar (rat) assessed as inhibition of carrageenan-induced edema volume at 69.4 mg/kg, po measured after 30 min; type: functional; conditions: 0.5 h
[8] = system: Mus musculus; test: Analgesic activity in Mus musculus (mouse) assessed as inhibition of acetic acid-induced writhing at 69.4 mg/kg, po pretreated 1 hr before acetic acid challenge; type: functional
[9] = system: Rattus norvegicus; test: Anti-inflammatory activity in Rattus norvegicus Wistar (rat) assessed as inhibition of carrageenan-induced edema volume at 69.4 mg/kg, po measured after 120 min; type: functional; conditions: 2 h
[10] = system: Mus musculus; test: Analgesic activity in Mus musculus (mouse) assessed as inhibition of acetic acid-induced writhing at 66.2 mg/kg, po pretreated 1 hr before acetic acid challenge; type: functional
[11] = system: Rattus norvegicus; test: Anti-inflammatory activity in Rattus norvegicus Wistar (rat) assessed as inhibition of carrageenan-induced edema volume at 66.2 mg/kg, po measured after 30 min; type: functional; conditions: 0.5 h
[12] = system: Rattus norvegicus; test: Anti-inflammatory activity in Rattus norvegicus Wistar (rat) assessed as inhibition of carrageenan-induced edema volume at 66.2 mg/kg, po measured after 120 min; type: functional; conditions: 2 h
[13] = system: Rattus norvegicus; test: Anti-inflammatory activity in Rattus norvegicus Wistar (rat) assessed as inhibition of carrageenan-induced edema volume at 66.2 mg/kg, po measured after 90 min; type: functional; conditions: 1.5 h
[14] = system: Rattus norvegicus; test: Anti-inflammatory activity in Rattus norvegicus Wistar (rat) assessed as inhibition of carrageenan-induced edema volume at 66.2 mg/kg, po measured after 60 min; type: functional; conditions: 1 h
[15] = system: Mus musculus; test: Analgesic activity in Mus musculus (mouse) assessed as inhibition of acetic acid-induced writhing at 67 mg/kg, po pretreated 1 hr before acetic acid challenge; type: functional
[16] = system: Rattus norvegicus; test: Anti-inflammatory activity in Rattus norvegicus Wistar (rat) assessed as inhibition of carrageenan-induced edema volume at 67.0 mg/kg, po measured after 90 min; type: functional; conditions: 1.5 h
[17] = system: Rattus norvegicus; test: Anti-inflammatory activity in Rattus norvegicus Wistar (rat) assessed as inhibition of carrageenan-induced edema volume at 67.0 mg/kg, po measured after 120 min; type: functional; conditions: 2 h
[18] = system: Rattus norvegicus; test: Anti-inflammatory activity in Rattus norvegicus Wistar (rat) assessed as inhibition of carrageenan-induced edema volume at 67.0 mg/kg, po measured after 30 min; type: functional; conditions: 0.5 h
[19] = system: Rattus norvegicus; test: Anti-inflammatory activity in Rattus norvegicus Wistar (rat) assessed as inhibition of carrageenan-induced edema volume at 67.0 mg/kg, po measured after 60 min; type: functional; conditions: 1 h
[20] = system: Rattus norvegicus; test: Anti-inflammatory activity in Rattus norvegicus Wistar (rat) assessed as inhibition of carrageenan-induced edema volume at 71.9 mg/kg, po measured after 30 min; type: functional; conditions: 0.5 h
[21] = system: Rattus norvegicus; test: Anti-inflammatory activity in Rattus norvegicus Wistar (rat) assessed as inhibition of carrageenan-induced edema volume at 71.9 mg/kg, po measured after 90 min; type: functional; conditions: 1.5 h
[22] = system: Rattus norvegicus; test: Anti-inflammatory activity in Rattus norvegicus Wistar (rat) assessed as inhibition of carrageenan-induced edema volume at 71.9 mg/kg, po measured after 60 min; type: functional; conditions: 1 h
[23] = system: Mus musculus; test: Analgesic activity in Mus musculus (mouse) assessed as inhibition of acetic acid-induced writhing at 71.9 mg/kg, po pretreated 1 hr before acetic acid challenge; type: functional
[24] = system: Rattus norvegicus; test: Anti-inflammatory activity in Rattus norvegicus Wistar (rat) assessed as inhibition of carrageenan-induced edema volume at 71.9 mg/kg, po measured after 120 min; type: functional; conditions: 2 h
[25] = system: Rattus norvegicus; test: Anti-inflammatory activity in Rattus norvegicus Wistar (rat) assessed as inhibition of carrageenan-induced edema volume at 67.8 mg/kg, po measured after 60 min; type: functional; conditions: 1 h
[26] = system: Rattus norvegicus; test: Anti-inflammatory activity in Rattus norvegicus Wistar (rat) assessed as inhibition of carrageenan-induced edema volume at 67.8 mg/kg, po measured after 30 min; type: functional; conditions: 0.5 h
[27] = system: Rattus norvegicus; test: Anti-inflammatory activity in Rattus norvegicus Wistar (rat) assessed as inhibition of carrageenan-induced edema volume at 67.8 mg/kg, po measured after 120 min; type: functional; conditions: 2 h
[28] = system: Mus musculus; test: Analgesic activity in Mus musculus (mouse) assessed as inhibition of acetic acid-induced writhing at 67.8 mg/kg, po pretreated 1 hr before acetic acid challenge; type: functional
[29] = system: Rattus norvegicus; test: Anti-inflammatory activity in Rattus norvegicus Wistar (rat) assessed as inhibition of carrageenan-induced edema volume at 67.8 mg/kg, po measured after 90 min; type: functional; conditions: 1.5 h

## COc1ccc2cc(C(C)C(=O)OCC(OC(C)=O)C(OC(C)=O)C(OC(C)=O)C(/C=N/[C@@H](Cc3ccc(O)cc3)C(=O)O)OC(C)=O)ccc2c1 (stereo partly drawn)
[1]
  inhibition in vivo at 69.4 mg/kg: 25%
[2]
  inhibition in vivo at 69.4 mg/kg: 47%
[3]
  t1/2: 18 h
[4]
  t1/2: 22 h
[5]
  t1/2: 67 h
[6]
  t1/2: 50 h
[7]
  inhibition in vivo at 69.4 mg/kg: 60%
[8]
  inhibition in vivo at 69.4 mg/kg: 82%
[9]
  inhibition in vivo at 69.4 mg/kg: 67%

## COc1ccc2cc(C(C)C(=O)OCC(OC(C)=O)C(OC(C)=O)C(OC(C)=O)C(/C=N/[C@H](C(=O)O)[C@@H](C)O)OC(C)=O)ccc2c1 (stereo partly drawn)
[10]
  inhibition in vivo at 66.2 mg/kg: 60.4%
[11]
  inhibition in vivo at 66.2 mg/kg: 18%
[12]
  inhibition in vivo at 66.2 mg/kg: 58%
[13]
  inhibition in vivo at 66.2 mg/kg: 39%
[14]
  inhibition in vivo at 66.2 mg/kg: 24%

## COc1ccc2cc(C(C)C(=O)OCC(OC(C)=O)C(OC(C)=O)C(OC(C)=O)C(/C=N/[C@@H](Cc3cnc[nH]3)C(=O)O)OC(C)=O)ccc2c1 (stereo partly drawn)
[15]
  inhibition in vivo at 67 mg/kg: 65.9%
[16]
  inhibition in vivo at 67 mg/kg: 39%
[17]
  inhibition in vivo at 67 mg/kg: 58%
[18]
  inhibition in vivo at 67 mg/kg: 26%
[19]
  inhibition in vivo at 67 mg/kg: 13%

## COc1ccc2cc(C(C)C(=O)OCC(OC(C)=O)C(OC(C)=O)C(OC(C)=O)C(/C=N/[C@@H](Cc3c[nH]c4ccccc34)C(=O)O)OC(C)=O)ccc2c1 (stereo partly drawn)
[20]
  inhibition in vivo at 71.9 mg/kg: 18%
[21]
  inhibition in vivo at 71.9 mg/kg: 36%
[3]
  t1/2: 18 h
[4]
  t1/2: 88 h
[5]
  t1/2: 115 h
[6]
  t1/2: 57 h
[22]
  inhibition in vivo at 71.9 mg/kg: 16%
[23]
  inhibition in vivo at 71.9 mg/kg: 73.7%
[24]
  inhibition in vivo at 71.9 mg/kg: 70%

## COc1ccc2cc(C(C)C(=O)OCC(OC(C)=O)C(OC(C)=O)C(OC(C)=O)C(/C=N/[C@@H](Cc3ccccc3)C(=O)O)OC(C)=O)ccc2c1 (stereo partly drawn)
[25]
  inhibition in vivo at 67.8 mg/kg: 13%
[26]
  inhibition in vivo at 67.8 mg/kg: 22%
[27]
  inhibition in vivo at 67.8 mg/kg: 69%
[28]
  inhibition in vivo at 67.8 mg/kg: 91.2%
[29]
  inhibition in vivo at 67.8 mg/kg: 47%
